Where a name gives a salt, the structure may show the parent alone.
Assays:
[1] = ref Lukesh et al., 2012; cited from earlier work
PfLipL1 [2] = target: T1, PfLipL1 (Plasmodium falciparum, UniProt Q8IEG9); test: biochemical; type: binding; conditions: KD TSA, Kd calculated at 37 °C
malaria parasite = conditions: treatment with lipoate analogs; ref Allary et al., 2007; Afanador et al., 2014; cited from earlier work
PfLipL1 [3] = target: T1, PfLipL1; test: biochemical; type: binding; conditions: KD ITC
[4] = reducing conditions, + TCEP (5 mM)
[5] = non-reducing conditions (no reducing agent)

T1 sequence (Q8IEG9 19-408): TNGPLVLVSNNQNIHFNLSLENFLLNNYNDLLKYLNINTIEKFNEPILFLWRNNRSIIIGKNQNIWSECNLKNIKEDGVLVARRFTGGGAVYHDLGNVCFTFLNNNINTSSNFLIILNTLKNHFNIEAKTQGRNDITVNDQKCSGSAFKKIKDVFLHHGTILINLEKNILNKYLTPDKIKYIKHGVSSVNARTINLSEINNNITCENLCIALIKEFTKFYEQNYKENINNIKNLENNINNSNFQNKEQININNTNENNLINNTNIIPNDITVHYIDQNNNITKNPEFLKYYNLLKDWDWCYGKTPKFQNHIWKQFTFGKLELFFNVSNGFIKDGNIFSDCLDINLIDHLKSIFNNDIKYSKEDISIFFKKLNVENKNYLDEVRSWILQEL

Structure (SMILES)	Kd (PfLipL1 [2]; [4])	Kd (PfLipL1 [2]; [5])	further results
O[C@@H](CS)[C@@H](O)CS (racemic) [DTT, dithiothreitol]			pKa [1]: 9.3
O=C(O)CCCC[C@@H](S)CCS (racemic) [Lipoate + TCEP, dihydrolipoate]	94000 ± 30000 nM		
O=C(O)CCCCC(Cl)CCCl (stereo not shown) [6,8-diClO, 6,8-dichlorooctanoate]	18000 ± 1000 nM	13000 ± 4000 nM	parasite cell growth inhibition (malaria parasite): causes parasite cell growth inhibition
Nc1ncnc2c1ncn2[C@@H]1O[C@H](COP(=O)(O)OC(=O)CCCCC(Cl)CCCl)[C@@H](O)[C@H]1O (stereo partly drawn) [6,8-diClO-AMP, 6,8-dichlorooctanoic (((2R,3S,4R,5R)-5-(6-amino-9H-purin-9-yl)-3,4-dihydroxytetrahydrofuran-2-yl)methylphosphoric) anhydride monosodium salt]	250 ± 20 nM	90 ± 30 nM	Kd (PfLipL1 [3]; non-reducing conditions): 100 ± 30 nM; Kd (PfLipL1 [3]; reducing conditions, + TCEP): 500 ± 200 nM
O=C(O)CCCCCCCBr [8-BrO, 8-bromooctanoate]			parasite cell growth inhibition (malaria parasite): causes parasite cell growth inhibition
Nc1ncnc2c1ncn2[C@@H]1O[C@H](COP(=O)(O)OC(=O)CCCC[C@@H](S)CCS)[C@@H](O)[C@H]1O [Lipoyl-AMP + TCEP, dihydrolipoyl-AMP]	5800 ± 400 nM		
Nc1ncnc2c1ncn2[C@@H]1O[C@H](COP(=O)(O)OC(=O)CCCC[C@@H]2CCSS2)[C@@H](O)[C@H]1O [Lipoyl-AMP, (R)-5-(1,2-dithiolan-3-yl)pentanoic (((2R,3S,4R,5R)-5-(6-amino-9H-purin-9-yl)-3,4-dihydroxytetrahydrofuran-2-yl)methylphosphoric) anhydride monosodium salt]		20 ± 5 nM	Kd (PfLipL1 [3]; non-reducing conditions): 65 ± 5 nM

Reference: publication PMC5653438 (Molecular microbiology, 2017)
